Test results from ChEMBL document CHEMBL5370543, “Discovery of 6-aryl-2-(3,4,5-trimethoxyphenyl)thiazole[3,2-b][1,2,4]triazoles as potent tubulin polymerization inhibitors” (Eur J Med Chem, 2023).
pIC50: −log10 of the molar value.

Assays:
[1] = test system: HT-1080; test: Antiproliferative activity against human HT-1080 cells assessed as cell growth inhibition incubated for 72 hrs by MTT assay; type: functional, cell-based; details: HT-1080, 72 h
[2] = test system: SGC-7901; test: Antiproliferative activity against human SGC-7901 cells assessed as cell growth inhibition incubated for 72 hrs by MTT assay; type: functional, cell-based; details: SGC-7901, 72 h
[3] = test system: MCF7; test: Antiproliferative activity against human MCF7 cells assessed as cell growth inhibition incubated for 72 hrs by MTT assay; type: functional, cell-based; details: MCF7, 72 h
[4] = biological target: Tubulin (Homo sapiens) (UniProt P68371+Q9H4B7+P0DPH7+P68366+Q13509+Q71U36+P04350+Q3ZCM7+P07437+P68363+Q9BQE3+Q6PEY2+Q13885+Q9BVA1+Q9BUF5); test: Binding affinity to tubulin (unknown origin) at colchicine binding site assessed as tubulin-colchicine complex competition rate at 1.25 uM preincubated for 45 mins followed by colchicine addition by fluorescence based assay relative to control; type: protein-complex assay
[5] = test system: SGC-7901; test: Induction of cell cycle arrest in human SGC-7901 cells assessed as accumulation at G0/G1 phase at 2 times IC50 incubated for 24 hrs by PI/RNase staining based flow cytometry (reference value: 41 %); type: functional
[6] = test system: SGC-7901; test: Induction of cell cycle arrest in human SGC-7901 cells assessed as accumulation at sub-G1 phase at 2 times IC50 incubated for 12 hrs by PI/RNase staining based flow cytometry (reference value: 6 %); type: functional
[7] = test system: SGC-7901; test: Induction of cell cycle arrest in human SGC-7901 cells assessed as accumulation at G0/G1 phase at 2 times IC50 incubated for 72 hrs by PI/RNase staining based flow cytometry (reference value: 41 %); type: functional
[8] = test system: SGC-7901; test: Induction of cell cycle arrest in human SGC-7901 cells assessed as accumulation at G0/G1 phase at 2 times IC50 incubated for 48 hrs by PI/RNase staining based flow cytometry (reference value: 41 %); type: functional
[9] = test system: SGC-7901; test: Induction of cell cycle arrest in human SGC-7901 cells assessed as accumulation at G0/G1 phase at 2 times IC50 incubated for 6 hrs by PI/RNase staining based flow cytometry (reference value: 41 %); type: functional
[10] = test system: SGC-7901; test: Induction of cell cycle arrest in human SGC-7901 cells assessed as accumulation at S phase at 2 times IC50 incubated for 6 hrs by PI/RNase staining based flow cytometry (reference value: 44 %); type: functional
[11] = test system: SGC-7901; test: Induction of cell cycle arrest in human SGC-7901 cells assessed as accumulation at G2/M phase at 2 times IC50 incubated for 48 hrs by PI/RNase staining based flow cytometry (reference value: 9 %); type: functional
[12] = test system: SGC-7901; test: Induction of cell cycle arrest in human SGC-7901 cells assessed as accumulation at G2/M phase at 2 times IC50 incubated for 72 hrs by PI/RNase staining based flow cytometry (reference value: 9 %); type: functional
[13] = test system: SGC-7901; test: Induction of cell cycle arrest in human SGC-7901 cells assessed as accumulation at G0/G1 phase at 2 times IC50 incubated for 12 hrs by PI/RNase staining based flow cytometry (reference value: 41 %); type: functional
[14] = test system: SGC-7901; test: Induction of cell cycle arrest in human SGC-7901 cells assessed as accumulation at S phase at 2 times IC50 incubated for 72 hrs by PI/RNase staining based flow cytometry (reference value: 44 %); type: functional
[15] = Cytotoxicity against HUVEC cells assessed as cell growth inhibition incubated for 72 hrs by MTT assay; type: toxicity, cell-based; details: human
[16] = test system: SGC-7901; test: Induction of cell cycle arrest in human SGC-7901 cells assessed as accumulation at sub-G1 phase at 2 times IC50 incubated for 6 hrs by PI/RNase staining based flow cytometry (reference value: 6 %); type: functional
[17] = test system: SGC-7901; test: Induction of cell cycle arrest in human SGC-7901 cells assessed as accumulation at S phase at 2 times IC50 incubated for 24 hrs by PI/RNase staining based flow cytometry (reference value: 44 %); type: functional
[18] = test system: SGC-7901; test: Induction of cell cycle arrest in human SGC-7901 cells assessed as accumulation at G2/M phase at 2 times IC50 incubated for 24 hrs by PI/RNase staining based flow cytometry (reference value: 9 %); type: functional
[19] = test system: SGC-7901; test: Induction of cell cycle arrest in human SGC-7901 cells assessed as accumulation at G2/M phase at 2 times IC50 incubated for 12 hrs by PI/RNase staining based flow cytometry (reference value: 9 %); type: functional
[20] = test system: SGC-7901; test: Induction of cell cycle arrest in human SGC-7901 cells assessed as accumulation at sub-G1 phase at 2 times IC50 incubated for 72 hrs by PI/RNase staining based flow cytometry (reference value: 6 %); type: functional
[21] = test system: SGC-7901; test: Induction of cell cycle arrest in human SGC-7901 cells assessed as accumulation at S phase at 2 times IC50 incubated for 12 hrs by PI/RNase staining based flow cytometry (reference value: 44 %); type: functional
[22] = test system: SGC-7901; test: Induction of cell cycle arrest in human SGC-7901 cells assessed as accumulation at sub-G1 phase at 2 times IC50 incubated for 48 hrs by PI/RNase staining based flow cytometry (reference value: 6 %); type: functional
[23] = test system: SGC-7901; test: Induction of cell cycle arrest in human SGC-7901 cells assessed as accumulation at G2/M phase at 2 times IC50 incubated for 6 hrs by PI/RNase staining based flow cytometry (reference value: 9 %); type: functional
[24] = Selectivity index, ratio of IC50 for HUVEC cells to IC50 for human SGC-7901 cells; type: functional
[25] = test system: SGC-7901; test: Induction of cell cycle arrest in human SGC-7901 cells assessed as accumulation at S phase at 2 times IC50 incubated for 48 hrs by PI/RNase staining based flow cytometry (reference value: 44 %); type: functional
[26] = test system: SGC-7901; test: Induction of cell cycle arrest in human SGC-7901 cells assessed as accumulation at sub-G1 phase at 2 times IC50 incubated for 24 hrs by PI/RNase staining based flow cytometry (reference value: 6 %); type: functional
[27] = test system: 4T1; test: Antitumor activity against mouse 4T1 cells allografted in Balb/c mouse assessed as tumor weight at 5 mg/kg, iv administered every other day measured after 12 days (reference value: 448 mg); type: functional; details: time 12 day

COc1cc(-c2nc3scc(-c4cccc(N)c4)n3n2)cc(OC)c1OC
pIC50 [1]: 5.67 | pIC50 [2]: 6.09 | pIC50 [3]: 5.44

COc1cc(-c2nc3scc(-c4ccc(Br)cc4)n3n2)cc(OC)c1OC
pIC50 [1]: 5.13 | pIC50 [2]: 5.24 | pIC50 [3]: 5.16

COc1cc(-c2nc3scc(-c4ccccc4Cl)n3n2)cc(OC)c1OC
pIC50 [1]: 5.47 | pIC50 [2]: 5.35 | pIC50 [3]: 5.13

COc1cccc(-c2csc3nc(-c4cc(OC)c(OC)c(OC)c4)nn23)c1
pIC50 [1]: 5.66 | pIC50 [2]: 6.03 | pIC50 [3]: 5.31

COc1cc(-c2nc3scc(-c4ccc(F)cc4)n3n2)cc(OC)c1OC
pIC50 [1]: < 4.52 | pIC50 [2]: < 4.52 | pIC50 [3]: < 4.52

COc1ccc(-c2csc3nc(-c4cc(OC)c(OC)c(OC)c4)nn23)cc1F
pIC50 [1]: 5.42 | pIC50 [2]: 5.00 | pIC50 [3]: 5.29

COc1cc(-c2nc3scc(-c4ccccc4)n3n2)cc(OC)c1OC
pIC50 [1]: 5.44 | pIC50 [2]: 6.06 | pIC50 [3]: 5.36

COc1ccc(-c2csc3nc(-c4cc(OC)c(OC)c(OC)c4)nn23)cc1
pIC50 [1]: 5.42 | pIC50 [2]: 5.21 | pIC50 [3]: 5.08

COc1cc(-c2nc3scc(-c4ccc([N+](=O)[O-])cc4)n3n2)cc(OC)c1OC
pIC50 [1]: 5.37 | pIC50 [2]: 5.52 | pIC50 [3]: < 4.52

COc1cc(-c2nc3scc(-c4ccc(Cl)cc4)n3n2)cc(OC)c1OC
pIC50 [1]: 5.43 | pIC50 [2]: 5.66 | pIC50 [3]: 5.33

COc1cc(-c2nc3scc(-c4ccc(F)c(F)c4)n3n2)cc(OC)c1OC
pIC50 [1]: 5.55 | pIC50 [2]: 5.09 | pIC50 [3]: 5.30

COc1cc(-c2nc3scc(-c4cccc(Br)c4)n3n2)cc(OC)c1OC
pIC50 [1]: 5.77 | pIC50 [2]: 6.21 | pIC50 [3]: 5.46

COc1ccccc1-c1csc2nc(-c3cc(OC)c(OC)c(OC)c3)nn12
pIC50 [1]: 5.12 | pIC50 [2]: 5.14 | pIC50 [3]: 5.30

COc1ccc(/C=C\c2cc(OC)c(OC)c(OC)c2)cc1O
Activity [4]: 23.8%

COc1ccc(-c2csc3nc(-c4cc(OC)c(OC)c(OC)c4)nn23)cc1OC
pIC50 [1]: 4.93 | pIC50 [2]: 5.43 | pIC50 [3]: 5.23

COc1cc(-c2nc3scc(-c4cc(F)cc(F)c4)n3n2)cc(OC)c1OC
pIC50 [1]: 5.64 | pIC50 [2]: 6.21 | pIC50 [3]: 5.41

COc1cc2c(c(OC)c1OC)-c1ccc(OC)c(=O)cc1[C@@H](NC(C)=O)CC2 [COLCHICINE]
Activity [5]: 10% | Activity [6]: 12% | Activity [7]: 1% | Activity [8]: 0% | Activity [9]: 33% | Activity [10]: 42% | Activity [11]: 72% | Activity [12]: 50% | Activity [13]: 20% | Activity [14]: 8% | pIC50 [1]: 7.14 | IC50 at 72 h [15]: 0.21 µM | Activity [16]: 9% | pIC50 [2]: 6.96 | Activity [17]: 12% | Activity [18]: 64% | Activity [19]: 52% | Activity [20]: 41% | Activity [21]: 16% | Activity [22]: 16% | Activity [23]: 16% | pIC50 [3]: 7.17 | Ratio IC50 [24]: 1.91 | Activity [25]: 12% | Activity [26]: 14%

COc1cc(-c2nc3scc(-c4ccc(C(F)(F)F)cc4)n3n2)cc(OC)c1OC
pIC50 [1]: 5.54 | pIC50 [2]: 5.39 | pIC50 [3]: 4.91

COc1cc(-c2nc3scc(-c4cc(C)cc(C)c4)n3n2)cc(OC)c1OC
pIC50 [1]: 5.85 | pIC50 [2]: 6.26 | pIC50 [3]: 5.27

COc1cc(-c2nc3scc(-c4ccc(C)cc4)n3n2)cc(OC)c1OC
pIC50 [1]: 5.82 | pIC50 [2]: 5.44 | pIC50 [3]: 5.59

COc1cc(-c2nc3scc(-c4ccccc4Br)n3n2)cc(OC)c1OC
pIC50 [1]: 5.87 | pIC50 [2]: 5.19 | pIC50 [3]: 5.28

COc1cc(-c2nc3scc(-c4cccc([N+](=O)[O-])c4)n3n2)cc(OC)c1OC
pIC50 [1]: 5.82 | pIC50 [2]: 6.12 | pIC50 [3]: 5.50

COc1cc(-c2nc3scc(-c4cccc(F)c4)n3n2)cc(OC)c1OC
pIC50 [1]: 5.56 | pIC50 [2]: 6.11 | pIC50 [3]: 5.31

Nc1ccn([C@@H]2O[C@H](CO)[C@@H](O)C2(F)F)c(=O)n1 [GEMCITABINE]
Activity [27]: 17.02 mg

COc1cc(-c2nc3scc(-c4ccccc4F)n3n2)cc(OC)c1OC
pIC50 [1]: 5.78 | pIC50 [2]: 5.14 | pIC50 [3]: 5.23

COc1cc(-c2nc3scc(-c4cccc(Cl)c4)n3n2)cc(OC)c1OC
pIC50 [1]: 5.82 | pIC50 [2]: 6.37 | pIC50 [3]: 5.51
